Article PMC8000227 (Viruses, 2021)
Several values for one entry are separate records, joined by “and”; a condition that tells them apart may be missing. Identical values can stand only once.

Key:
HIV-1NL4-3 = test: microbe, parasite or virus in culture; type: cell-based; details: TZM-GFP cells, HIV-1NL4-3 MOI 0.1, 48 h, mean ± SD; for EC50: Human immunodeficiency virus 1, read-out: EC50 (concentration of compound inhibiting HIV-1 replication by 50%)
[1] = target: covalently-crosslinked hexameric CA A14C/E45C/W184A/M185A (CA121) (Human immunodeficiency virus type 1 group M subtype B, UniProt P12493, A146C/E177C/M317A/W316A); test: Thermal shift assay (TSA) on CA hexamer stability; type: binding, HIV-1; details: 20 µM compound, 7.5 µM CA121
[2] = Cytotoxicity assay (XTT) in TZM-GFP cells; type: cell-based; details: human, mean ± SD, read-out: CC50 (concentration of compound causing 50% cell death)
[3] = Microsomal stability, mouse liver microsomes; type: in vitro ADME; details: pH 7.4, 1 µM compound, 0.5 mg/mL microsomal protein, NADPH, 37 °C, read-out: Phase I metabolic stability t1/2, MLMs
[4] = Microsomal stability, human liver microsomes; type: in vitro ADME; details: 0.5 mg/mL microsomal protein, NADPH, 37 °C; for half-life at 1 µM: human, liver microsomes, pH 7.4, 1 µM compound, read-out: Phase I metabolic stability t1/2, HLMs
[5] = Metabolites observed in the microsomal stability assay; type: in vitro ADME; details: observed in liver microsomal stability assay
[6] = cited from earlier work
[7] = cited from earlier work; remark: listed apart in the source

SMILES	EC50 (HIV-1NL4-3) [µM]	TSA ΔTm (change of CA crosslinked hexamer melting temperature vs DMSO) [1]	CC50 at 72 h [2] [µM]	EC50 (concentration of compound inhibiting HIV-1 replication by 50%) (HIV-1NL4-3)	half-life at 1 µM [3] [min]	half-life at 1 µM [4] [min]	Metabolite (s) [5]	Phase I metabolic stability t1/2, HLMs ([4]; 1 µM compound) [min]	half-life (t1/2) in mouse liver microsomes (MLMs) [6]	half-life (t1/2) in human liver microsomes (HLMs) [7]
Cc1[nH]c2ccccc2c1CC(=O)N[C@@H](Cc1ccccc1)C(=O)N1CCc2ccccc21 [Compound 1]	> 20	−0.5 °C	> 100							
O=C(Cc1c[nH]c2ccccc12)N[C@@H](Cc1ccccc1)C(=O)N1CCc2ccccc21 [Compound 2]	> 20	−1.0 °C	> 100							
O=C(Cc1c[nH]c2ccccc12)N[C@@H](Cc1ccccc1)C(=O)N1CCCc2ccccc21 [Compound 3]	> 20	1.8 ± 1.2 °C	> 50							
Cc1[nH]c2ccccc2c1CC(=O)N[C@H](Cc1ccccc1)c1ncccc1-c1ccccc1 [Compound 4]	> 20		< 50	completely inactive						
O=C(Cn1ncc2ccccc21)N[C@H](Cc1ccccc1)c1ncccc1-c1ccccc1 [Compound 5]	> 20	0.1 ± 0.07 °C	< 50							
O=C(Cn1cccn1)N[C@H](Cc1ccccc1)c1ncccc1-c1ccccc1 [Compound 6]	> 15	0.3 ± 0.1 °C	> 50							
O=C(Cn1ncc2ccccc21)N[C@H](Cc1ccccc1)c1ncccc1-c1cccc2cn[nH]c12 [Compound 7]	> 20	0 ± 0 °C	> 50							
O=C(Cn1cccn1)N[C@H](Cc1ccccc1)c1ncccc1-c1cccc2cn[nH]c12 [Compound 8]	> 20	0.1 ± 0.1 °C	> 50							
Cc1[nH]c2ccccc2c1CC(=O)N[C@@H](Cc1ccccc1)c1ncccc1-c1ccccc1 [Compound 9]	2.6 ± 0.4	4.5 °C and 4.5 ± 0.0 °C	< 50		1 ± 0.01	1.2 ± 0.04				
O=C(Cn1ncc2ccccc21)N[C@@H](Cc1ccccc1)c1ncccc1-c1ccccc1 [Compound 10, (S)-2-(1H-indazol-1-yl)-N-(2-phenyl-1-(3-phenylpyridin-2-yl)ethyl)acetamide]	8.8 ± 0.4		< 50	low micromolar						
O=C(Cn1cccn1)N[C@@H](Cc1ccccc1)c1ncccc1-c1ccccc1 [Compound 11, (S)-N-(2-phenyl-1-(3-phenylpyridin-2-yl)ethyl)-2-(1H-pyrazol-1-yl)acetamide]	5.1 ± 0.7		> 50	low micromolar						
Cc1[nH]c2ccccc2c1CC(=O)N[C@@H](Cc1ccccc1)c1ncccc1-c1cccc(C#N)c1 [Compound 12]	> 20	−0.2 ± 0.07 °C	> 50							
O=C(Cc1c[nH]c2ccccc12)N[C@@H](Cc1ccccc1)c1ncccc1-c1ccc(Cl)cc1 [Compound 13]	0.79 ± 0.25	7.7 ± 0.2 °C	22 ± 2							
COc1ccc2[nH]cc(CC(=O)N[C@@H](Cc3ccccc3)c3ncccc3-c3ccc(Cl)cc3)c2c1 [Compound 14]	1.4 ± 0.7	7.8 ± 0.3 °C	39 ± 0.2		0.9 ± 0.004	1.7 ± 0.02	15			
O=C(Cc1c[nH]c2ccc(O)cc12)N[C@@H](Cc1ccccc1)c1ncccc1-c1ccc(Cl)cc1 [Compound 15]	0.31 ± 0.07	8.7 °C and 8.7 ± 0.3 °C	44 ± 1		3.1 ± 0.3	27		27.2 ± 0.5		
CCn1cc(CC(=O)N[C@@H](Cc2ccccc2)c2ncccc2-c2ccc(Cl)cc2)c2ccccc21 [Compound 16]	2.7 ± 0.2	6.6 ± 0.2 °C	41 ± 0.1		1.4 ± 0.02	1.4 ± 0.02	15			
CCn1cc(CC(=O)N[C@@H](Cc2ccccc2)c2ncccc2-c2ccc(Cl)cc2)c2cc(OC)ccc21 [Compound 17]	3.6 ± 0.2	5.9 ± 0.2 °C	48 ± 6		1.3 ± 0.005	1.3 ± 0.01	15 and 14			
COc1ccc2[nH]cc(CC(=O)N[C@@H](Cc3ccccc3)c3ncccc3-c3ccc(Br)cc3)c2c1 [Compound 18]	2.1 ± 0.8	6.3 ± 0.6 °C	40 ± 4							
CCn1cc(CC(=O)N[C@@H](Cc2ccccc2)c2ncccc2-c2ccc(Br)cc2)c2ccccc21 [Compound 19]	3.2 ± 0.3	6.3 ± 0.1 °C	41 ± 2							
Cc1[nH]c2ccccc2c1CC(=O)N[C@@H](Cc1ccccc1)c1nccn1-c1ccccc1 [Compound 20]	3.7 ± 0.8	3.9 °C and 3.9 ± 0.4 °C	> 50		0.7 ± 0.01	0.9 ± 0.004				
Cc1[nH]c2ccccc2c1CC(=O)N[C@@H](Cc1ccccc1)c1nccn1-c1ccc(C#N)cc1 [Compound 21]	6.6 ± 0.4	2.2 ± 0.0 °C	> 50							
Cc1[nH]c2ccccc2c1CC(=O)N[C@@H](Cc1ccccc1)c1nccn1-c1ccc(-c2nnn[nH]2)cc1 [Compound 22]	> 20	−0.3 ± 0.1 °C	> 50	no antiviral activity	0.9 ± 0.01	1.3 ± 0.01				
COc1ccc2[nH]cc(CC(=O)N[C@@H](Cc3ccccc3)c3nccn3-c3ccc(Cl)cc3)c2c1 [Compound 23]	3.3 ± 0.03	4.0 ± 0.3 °C	93 ± 2							
COc1ccc2[nH]cc(CC(=O)N[C@@H](Cc3ccccc3)c3nccn3-c3ccc(Br)cc3)c2c1 [Compound 24]	3.5 ± 0.3	2.8 ± 0.3 °C	> 100							
COc1ccc2[nH]cc(CC(=O)N[C@@H](Cc3ccccc3)c3nccn3-c3ccc(I)cc3)c2c1 [Compound 25]	3.3 ± 0.2	2.7 ± 0.1 °C	> 100							
Cc1[nH]c2ccccc2c1CC(=O)N[C@@H](Cc1ccccc1)C(=O)N(C)c1ccccc1 [PF74, reference compound]	0.7 ± 0.07	6.9 °C and 6.9 ± 0.5 °C							less than 1 min	less than 1 min
